Data reported in patent publication US20170007617A1, “INTRAVENOUS FORMULATIONS OF A LATE SODIUM CURRENT INHIBITOR” (Gilead Sciences Drive, priority 2015, published 2017).
In brackets after ≈: the same amount, converted by molar mass. Where two headings read alike, the source gives them in different places.

Tests used:
Type in all cases: physicochemical
[1] = Solubility of Compound (I) in water and solubilizing vehicles
[2] = Chemical stability in solution
[3] = Precipitation upon dilution of pre-concentrate into saline; details: pre-concentrated formulation of 40% TWEEN 80 and 60% PEG 400

## O=C1c2cc(-c3ccc(OC(F)(F)F)cc3)ccc2OCCN1Cc1ncccn1 [Compound (I), 4-(pyrimidin-2-ylmethyl)-7-(4-(trifluoromethoxy)phenyl)-3,4-dihydrobenzo[f][1,4]oxazepin-5(2H)-one]
[1]; 1.6% TWEEN 80 and 2.4% PEG 400 in water, aqueous with cosolvent or surfactant or cyclodextrin, 1.6% TWEEN 80 and 2.4% PEG 400 in water, read-out: solubility
  solubility: 1400 µg/mL (≈ 3.37 mM)
[1]; 40% TWEEN 80 and 60% PEG 400, organic solvent or mixture, 40% TWEEN 80 and 60% PEG 400, read-out: solubility
  solubility: > 100000 µg/mL
[1]; PEG 400/water co-solvent system, 0.3 mg/mL needed in infusion media for 15 mg dose
  amount of PEG 400 required to achieve 0.3 mg/mL: more than 30%
[1]; about 0.4% TWEEN 80 and about 0.6% PEG 400 in water, aqueous with cosolvent or surfactant or cyclodextrin, about 0.4% TWEEN 80 and about 0.6% PEG 400 in water, read-out: solubility
  solubility: 400 µg/mL (≈ 0.963 mM)
[1]; oil-in-water emulsion with 20% oil, oil or lipid, oil-in-water emulsion with 20% oil, read-out: solubility
  solubility: ≤ 5000 µg/mL
[1]; safflower oil, oil or lipid, safflower oil, read-out: solubility in triglycerides
  solubility: ~25000 µg/mL (≈ 60.2 mM)
[1]; water with 3.6% Captisol, aqueous with cosolvent or surfactant or cyclodextrin, water with 3.6% Captisol, read-out: solubility
  solubility: 1100 µg/mL (≈ 2.65 mM)
[1]; water with 7% hydroxypropyl-β-cyclodextrin, aqueous with cosolvent or surfactant or cyclodextrin, water with 7% hydroxypropyl-β-cyclodextrin, read-out: solubility
  solubility: 3200 µg/mL (≈ 7.7 mM)
[1]; water with 12% Captisol, aqueous with cosolvent or surfactant or cyclodextrin, water with 12% Captisol, read-out: solubility
  solubility: 3900 µg/mL (≈ 9.39 mM)
[1]; water with 14% hydroxypropyl-β-cyclodextrin, aqueous with cosolvent or surfactant or cyclodextrin, water with 14% hydroxypropyl-β-cyclodextrin, read-out: solubility
  solubility: 7400 µg/mL (≈ 17.8 mM)
[1]; water with 28% hydroxypropyl-β-cyclodextrin, aqueous with cosolvent or surfactant or cyclodextrin, water with 28% hydroxypropyl-β-cyclodextrin, read-out: solubility
  solubility: 18000 µg/mL (≈ 43.3 mM)
[1]; water with 36% Captisol, aqueous with cosolvent or surfactant or cyclodextrin, water with 36% Captisol, read-out: solubility
  solubility: 13700 µg/mL (≈ 33 mM)
[1]; water, listed as compound of formula (I)
  water solubility: about 0.01 mg/mL
[1]; water, read-out: water solubility
  solubility: 10 µg/mL (≈ 0.0241 mM)
[2]
  chemical stability in solution: chemically stable in solution
[3]
  concentration needed to avoid precipitation upon dilution: ≤ 30000 µg/mL
